Data taken from US11312676B2, “Small molecule stimulators of steroid receptor coactivator proteins and their use in the treatment of cancer” (BAYLOR COLLEGE OF MEDICINE, priority 2014, dated 2022).

Tests used:
[1] = system: MCF-7 breast cancer xenograft; test: MCF-7 xenograft tumor model; format: in vivo; conditions: 20 mg/kg i.p. three times a week
Method: Twenty 6-8 week-old athymic nude female mice were obtained from Harlan. Two days before cancer cell injection, one estradiol pellet was embedded under the skin for each mouse and a new pellet was added twice at a one month interval. Following this, 1×10^6 MCF-7 cells […] mixed with equal volume of growth factor reduced matrigel (BD Biosciences) were injected into the fat pad of each of the 2nd pair mammary gland without clearing. The MCB-613 treatment which lasted for seven weeks was started approximately seven weeks after the cell injection when tumor sizes reached above 5 mm in diameter. Ten mice received MCB-613 (20 mg/kg) in saline by i.p. injection, whereas the control group contained 10 mice which received saline only. The compound was injected three times a week. The mice were weighed once a week and tumors were measured twice a week during the treatment period.
To further evaluate the anti-cancer potential of MCB-613, a MCF-7 breast cancer mouse xenograft model was employed to assess the tumor suppressive effects of MCB-613 in vivo. Tumors were established in athymic nude mice seven weeks after injection of MCF-7 cells into […] mammary fat pads. An MCB-613 treated group (n=10) received i.p. injection of the compound (20 mg/kg) three times a week, while a control group (n=10) was injected with a saline vehicle.

[2] = molecular target: T1, VP16 (Human herpesvirus 1, UniProt P06492); test: Gal4-VP16 + pG5-LUC luciferase assay in HeLa cells; format: cell-based; conditions: 24 hours, only at higher compound concentrations
T1 construct: expressed in transfected cells; host or cells: HeLa
T1 sequence (P06492 413-490): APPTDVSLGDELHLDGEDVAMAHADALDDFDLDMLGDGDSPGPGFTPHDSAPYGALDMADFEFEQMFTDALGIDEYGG

[3] = molecular target: T2, receptor interacting domain (RID) of SRC-3 (Homo sapiens, UniProt Q9Y6Q9); test: Fluorescence spectroscopy, intrinsic fluorescence quenching of GST SRC-3 RID; format: binding; conditions: 1.5 μM GST SRC-3 RID, excitation 278 nm; read-out: half-affecting concentration of intrinsic fluorescence quenching, SRC-3 RID
T2 construct: A total of 1.5 μM of GST SRC-3 RID, CID or bHLH was placed in a fluorescence cuvette; made in house
T2 sequence (Q9Y6Q9 582-840 limits assumed): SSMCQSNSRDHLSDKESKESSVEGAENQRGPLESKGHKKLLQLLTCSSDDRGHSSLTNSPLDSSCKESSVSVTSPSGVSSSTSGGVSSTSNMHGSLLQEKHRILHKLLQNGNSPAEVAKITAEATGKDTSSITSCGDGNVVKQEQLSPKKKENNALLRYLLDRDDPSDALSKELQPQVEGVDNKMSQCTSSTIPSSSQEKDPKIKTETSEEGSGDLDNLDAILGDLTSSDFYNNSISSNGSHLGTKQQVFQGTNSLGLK
Method: Fluorescence spectrometric measurements were performed on a SLM 48000S fluorescence spectrophotometer (SLM-Aminco, Rochester, N.Y.) and an Agilent Cary Eclipse Fluorescence spectrophotometer (Agilent Technologies, Inc., Santa Clara, Calif.) using the GST fusion proteins of different portions of SRC-3 expressed and purified. A total of 1.5 μM of GST SRC-3 RID, CID or bHLH was placed in a fluorescence cuvette and excited by UV light at a wavelength of 278 nm with a 2 nm bandwidth and the emission spectra were recorded from 290 nm to above 500 nm with a bandwidth of 4 nm. The aliquot size of test compound was maintained below 5% of the total sample volume in order to minimize the effects of dilution.

[4] = molecular target: T3, SRC-3-CBP-CARM1 complex (Homo sapiens, UniProt Q9Y6Q9); test: Coimmunoprecipitation of FLAG-SRC-3 with CBP and CARM1 in HeLa cells; format: cell-based; conditions: HeLa cells overexpressing FLAG-SRC-3, one hour, dose-dependent
T3 construct: expressed in transfected cells; host or cells: HeLa
Method: For Western blotting, cells were harvested and lysed in lysis buffer (50 mM Tris, pH 8.0, 150 mM NaCl, 10% glycerol, 0.5% NP40, protease and phosphatase inhibitor) and then centrifuged for 15 min at 14000 rpm at 4° C. After total cellular protein concentration was determined by Bradford analysis (Bio-Rad, Hercules, Calif.), protein lysates were loaded onto and resolved by sodium dodecyl sulfate-polyacrylamide gel electrophoresis (SDS-PAGE) and transferred to PVDF membranes (BioRad) which were blocked and incubated with indicated antibodies. For immunoprecipitation, 10 μg of plasmid encoding FLAG-SRC-3 was transfected into HeLa cells with 90% confluence in one 10 cm plate with lipofectamine 2000 (Invitrogen). Twenty-four hours after transfection, the cells were treated with MCB-613 for one hour and lysed with lysis buffer (25 mM Tris-Cl pH7.5, 150 mM NaCl, 5% glycerol, 1 mM EDTA, 1% Triton X-100, protease and phosphatase inhibitor) at 4° C. After a 30-second sonication, the lysate was cleared by centrifugation at 14000 rpm at 4° C. for 15 minutes and was incubated with anti-Flag-M2 agarose affinity gel (Sigma) for four hours. The agarose gel was washed four times with washing buffer (25 mM Tris pH 8.0, 150 mM NaCl, 1 mM EDTA, 1% Triton X-100) and resuspended with SDS loading buffer for Western blotting. […]

[5] = system: MCF-7 (breast) cells; test: MTS cell viability assay, MCF-7; format: cell-based; conditions: MCF-7, 48 hours
Method: (§1) Cell lines were maintained in DMEM (HeLa, MCF-7, HepG2), RPMI 1640 (H1299), or DMEM/F12 (PC-3) supplemented with 10% fetal calf serum, penicillin and streptomycin (100 U/ml). Primary mouse hepatocytes were isolated and cultured. Mouse embryonic fibroblasts (MEF) were cultured in DMEM. All cells were maintained at 37° C. under 5% CO2.
(§2) Cells were seeded in 96-well plates and allowed to reach 70% to 80% confluence. After indicated compound treatments, relative numbers of viable cells were measured by MTS assay using the Cell Titer 96 Aqueous One Solution Cell Proliferation Assay (Promega).

[6] = system: MMP13 expression; test: qRT-PCR of endogenous MMP13 in MDA-MB-231 cells; format: cell-based; conditions: 24 hours
[7] = system: HepG2 (liver) cells; test: MTS cell viability assay, HepG2; format: cell-based; conditions: HepG2, 48 hours
Method: as §1, §2

[8] = system: PC-3 (prostate) cells; test: MTS cell viability assay, PC-3; format: cell-based; conditions: PC-3, 48 hours
Method: as §1, §2

[9] = molecular target: SRC-1 (Homo sapiens, UniProt Q15788); test: High throughput primary screen, HEK293 cells with pG5-luc and pBIND-SRC-1; format: cell-based; parameters: expressed in transfected cells; conditions: among 359,484 compounds
Chain of SRC-1 (Q15788 whole entry, the tested form may be a part): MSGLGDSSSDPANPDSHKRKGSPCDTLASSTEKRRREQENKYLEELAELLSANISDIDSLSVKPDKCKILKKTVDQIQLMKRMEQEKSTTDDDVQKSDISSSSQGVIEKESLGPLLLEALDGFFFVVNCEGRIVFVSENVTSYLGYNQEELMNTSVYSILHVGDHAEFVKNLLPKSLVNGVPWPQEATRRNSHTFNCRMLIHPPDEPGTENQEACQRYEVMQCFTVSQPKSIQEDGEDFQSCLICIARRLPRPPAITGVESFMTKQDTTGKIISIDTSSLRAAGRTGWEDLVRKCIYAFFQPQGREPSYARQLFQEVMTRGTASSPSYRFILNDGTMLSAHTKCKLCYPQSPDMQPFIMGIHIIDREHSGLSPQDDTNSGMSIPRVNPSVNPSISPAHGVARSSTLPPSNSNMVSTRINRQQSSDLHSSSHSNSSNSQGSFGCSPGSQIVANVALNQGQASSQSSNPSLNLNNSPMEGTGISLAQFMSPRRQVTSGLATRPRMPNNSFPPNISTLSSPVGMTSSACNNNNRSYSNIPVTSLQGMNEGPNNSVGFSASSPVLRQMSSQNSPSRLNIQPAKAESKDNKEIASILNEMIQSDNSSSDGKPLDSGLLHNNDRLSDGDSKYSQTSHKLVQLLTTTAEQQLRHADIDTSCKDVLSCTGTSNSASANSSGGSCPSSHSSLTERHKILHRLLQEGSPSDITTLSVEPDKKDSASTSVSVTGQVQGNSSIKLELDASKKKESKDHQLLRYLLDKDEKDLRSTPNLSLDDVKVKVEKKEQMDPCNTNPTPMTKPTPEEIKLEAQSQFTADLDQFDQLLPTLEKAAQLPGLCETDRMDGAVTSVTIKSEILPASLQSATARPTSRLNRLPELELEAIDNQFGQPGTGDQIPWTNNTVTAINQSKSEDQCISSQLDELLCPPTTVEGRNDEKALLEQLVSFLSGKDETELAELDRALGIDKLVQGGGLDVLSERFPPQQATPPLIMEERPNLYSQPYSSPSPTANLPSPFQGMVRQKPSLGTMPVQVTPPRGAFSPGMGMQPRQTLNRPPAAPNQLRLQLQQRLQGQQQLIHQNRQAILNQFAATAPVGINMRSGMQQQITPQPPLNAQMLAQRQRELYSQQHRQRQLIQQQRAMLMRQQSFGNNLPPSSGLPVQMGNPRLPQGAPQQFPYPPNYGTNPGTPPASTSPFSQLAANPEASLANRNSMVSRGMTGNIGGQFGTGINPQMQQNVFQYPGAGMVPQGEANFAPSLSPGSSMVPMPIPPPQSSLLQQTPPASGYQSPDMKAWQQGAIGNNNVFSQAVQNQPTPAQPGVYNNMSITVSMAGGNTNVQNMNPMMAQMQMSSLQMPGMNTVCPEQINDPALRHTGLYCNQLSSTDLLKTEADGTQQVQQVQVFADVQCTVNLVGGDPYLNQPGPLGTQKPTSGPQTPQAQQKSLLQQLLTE
Description: In a series of high throughput screens originally designed to identify SRC small molecule inhibitors, HEK293 cells transfected with a Gal4 responsive luciferase reporter (pG5-luc) and a construct encoding SRC-1, SRC-2 or SRC-3 fused with the DNA binding domain of Gal4 (pBIND-SRC-1, pBIND-SRC-2 or pBIND-SRC-3) were exposed to treatments with 359,484 compounds from a MLPCN chemical library (PubChem AID:588362, AID:652008 and AID:588354).

[10] = system: mouse primary hepatocytes; test: MTS cell viability assay, mouse primary hepatocytes; format: cell-based; conditions: 48 hours
Method: as §1, §2

In the case of `CCC1CC(=Cc2cccnc2)C(=O)C(=Cc2cccnc2)C1` (stereo not drawn) [MCB-613, 4-Ethyl-2,6-bis-pyridin-3-ylmethylene-cyclohexanone], the animal toxicity ([1]; 7 weeks) is reported as “did not lead to obvious animal toxicity”, the “body weights between control and treated groups” value ([1]; 7 weeks) is reported as “identical” and the “tumor volumes versus controls” value ([1]; after one week of treatment and throughout) is reported as “significantly smaller than controls”. For the same compound, the “activity of GAL4-VP16 fusion protein” value [2] was “minimally increasing the activity”, the EC50 [3] was 10 µM and the “SRC-3's interaction with CBP and CARM1” value [4] was “increased”. The “cytotoxicity, cell viability” value [5] was “efficiently kill”, the “endogenous MMP13 expression” value [6] was “activated” and the “cytotoxicity, cell viability” value [7] was “efficiently kill”. For the same compound, the “cytotoxicity, cell viability” value [8] was “efficiently kill”, the “activation of SRC-1 in the primary screen” value [9] was “greatest activation” and the “cytotoxicity to normal cells” value [10] was “resistant”.
